According to the supplement of paper PMC8671470:

Experiments:
Conditions in all cases: 72 h
ML-2 = test system: ML-2
Outline: (§1)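 Fifteen myeloid leukaemia cell lines were seeded in RPMI 1640 at densities titrated to the linear growth range and placed in 384-well plates with acoustically pre-printed compounds at five tenfold doses from 1 to 10,000 nM, in duplicate. After 72 h at 37 °C with 5% CO2, luminescent ATP viability was normalised to vehicle and to a positive control at 10 µM, and curves were fitted with a four-parameter log-logistic model. The IC50 was obtained from these fits.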

KCL-22 = test system: KCL-22
Outline: as §1

SHI-1 = test system: SHI-1
Outline: as §1

THP-1 = test system: THP-1
Outline: as §1

BV-173 = test system: BV-173
Outline: as §1

LAMA-84 = test system: LAMA-84
Outline: as §1

HL-60 [1] = test system: HL-60
Outline: as §1

KG-1 = test system: KG-1
Outline: as §1

HEL = test system: HEL
Outline: as §1

MOLM-13 = test system: MOLM-13
Outline: as §1

HL-60 [2] = assay: area under dose-response curve (viability, 1 nM-10 uM) (fraction (0-1)); higher = more sensitive
Outline: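 A rescreen of the full library used HL-60 cells in RPMI 1640 with 10% FBS on 384-well plates, run in duplicate at five tenfold concentrations (1–10,000 nM). Each screen included DMSO or 100 nM of one of three metabolic inhibitors and ran 72 h at 37 °C, 5% CO2. CellTiter-Glo viability was scaled between DMSO and 10 μM proteasome-inhibitor wells. Any area under the curve comes from four-parameter log-logistic fits with drc and PharmacoGx.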

[3] = test system: myeloid leukemia patient primary cells Pat.4; assay: cell viability (% survival relative to DMSO control); higher = less cytotoxic
Outline: (§2)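 Mononuclear cells from patients with AML or CML were thawed, purified on Ficoll and placed in RPMI 1640 with 10% FBS at 10,000 cells/well on 384-well plates. The plates came pre-printed with 70 compounds at five tenfold concentrations spanning 1–10,000 nM, in duplicate, and cells were exposed for 72 h. CellTiter-Glo gave viability, scaled between DMSO wells and wells with 10 μM proteasome inhibitor. Where reported, area under the curve was obtained from log-logistic fits with four parameters using the drc and PharmacoGx R packages.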

[4] = test system: myeloid leukemia patient primary cells Pat.5; assay: as above
Outline: as §2

[5] = test system: myeloid leukemia patient primary cells Pat.9; assay: as above
Outline: as §2

[6] = test system: myeloid leukemia patient primary cells Pat.14; assay: as above
Outline: as §2

[7] = test system: myeloid leukemia patient primary cells Pat.7; assay: as above
Outline: as §2

[8] = test system: myeloid leukemia patient primary cells Pat.15; assay: as above
Outline: as §2

[9] = test system: myeloid leukemia patient primary cells Pat.10; assay: as above
Outline: as §2

[10] = test system: myeloid leukemia patient primary cells Pat.13; assay: as above
Outline: as §2

[11] = test system: myeloid leukemia patient primary cells Pat.6; assay: as above
Outline: as §2

[12] = test system: myeloid leukemia patient primary cells Pat.3; assay: as above
Outline: as §2

[13] = test system: myeloid leukemia patient primary cells Pat.1; assay: as above
Outline: as §2

[14] = test system: myeloid leukemia patient primary cells Pat.8; assay: as above
Outline: as §2

[15] = test system: myeloid leukemia patient primary cells Pat.2; assay: as above
Outline: as §2

[16] = test system: myeloid leukemia patient primary cells Pat.11; assay: as above
Outline: as §2

[17] = test system: myeloid leukemia patient primary cells Pat.12; assay: as above
Outline: as §2

O=C1C(SCCO)=C(SCCO)C(=O)c2ccccc21
Conditions	IC50 (cell viability) [nM]
BV-173	309
HEL	1510
HL-60 [1]	3230
KCL-22	664
KG-1	507
LAMA-84	747
ML-2	307
MOLM-13	381
SHI-1	450
THP-1	424

Conditions	area under dose-response curve, co-treatment: AZD3965 100 nM	area under dose-response curve, co-treatment: DMSO vehicle	area under dose-response curve, co-treatment: GSK2194069 100 nM	area under dose-response curve, co-treatment: pictilisib 100 nM	cell viability, 1 nM [%]	cell viability, 10 nM [%]	cell viability, 100 nM [%]	cell viability, 1000 nM [%]	cell viability, 10000 nM [%]
HL-60 [2]	0.139	0.114	0.125	0.192	–	–	–	–	–
[3]	–	–	–	–	76.4	89.5	> 100	3.28	2.39
[4]	–	–	–	–	2.39	98.5	57.2	2.01	2.39
[5]	–	–	–	–	1.27	95.1	28.7	< 0	< 0
[6]	–	–	–	–	41.2	91.4	61.7	5.04	4.94
[7]	–	–	–	–	37.3	96.4	57.1	< 0	< 0
[8]	–	–	–	–	82.6	89.3	63.2	2.59	0.4
[9]	–	–	–	–	29.3	> 100	60.9	35	> 100
[10]	–	–	–	–	61.2	90.8	96.4	76.4	< 0
[11]	–	–	–	–	77.1	> 100	99.3	71.1	< 0
[12]	–	–	–	–	21.4	97.2	95.5	9.9	< 0
[13]	–	–	–	–	81.5	92.4	88.1	< 0	< 0
[14]	–	–	–	–	74.2	70	95.1	65.4	0.0301
[15]	–	–	–	–	93.1	> 100	97.1	55.8	0.14
[16]	–	–	–	–	96.1	91.4	99.8	7.63	0.114
[17]	–	–	–	–	94.2	99.6	92	2.07	< 0

CC(C)(C)c1ccc(S(=O)(=O)NCc2ccc(C(=O)Nc3cccnc3)cc2)cc1 [STF-31]
Conditions	IC50 (cell viability) [nM]
BV-173	38.3
HEL	73.8
HL-60 [1]	143
KCL-22	437
KG-1	144
LAMA-84	169
ML-2	228
MOLM-13	3570
SHI-1	> 10000
THP-1	> 10000

Conditions	area under dose-response curve, co-treatment: AZD3965 100 nM	area under dose-response curve, co-treatment: DMSO vehicle	area under dose-response curve, co-treatment: GSK2194069 100 nM	area under dose-response curve, co-treatment: pictilisib 100 nM	cell viability, 1 nM [%]	cell viability, 10 nM [%]	cell viability, 100 nM [%]	cell viability, 1000 nM [%]	cell viability, 10000 nM [%]
HL-60 [2]	0.328	0.342	0.362	0.324	–	–	–	–	–
[3]	–	–	–	–	84.9	83.8	18	1.84	1.54
[4]	–	–	–	–	78.8	6.66	0.912	0.265	2.27
[5]	–	–	–	–	72.4	28.7	7.17	< 0	0.773
[6]	–	–	–	–	74.9	62.1	9.36	1.38	< 0
[7]	–	–	–	–	80.1	62.7	7.78	< 0	< 0
[8]	–	–	–	–	87.8	90.9	89.8	2.3	1.11
[9]	–	–	–	–	56.6	35	64.9	< 0	4.94
[10]	–	–	–	–	94.8	87.8	87.7	8.95	9.54
[11]	–	–	–	–	98	85.7	71.1	21.7	28.8
[12]	–	–	–	–	90.6	45.5	6.65	2.19	1.78
[13]	–	–	–	–	95.2	82	> 100	31.6	16.5
[14]	–	–	–	–	97.5	87	63	6.59	9.06
[15]	–	–	–	–	98.4	96.8	84.9	13.2	11.4
[16]	–	–	–	–	95.5	92.3	99.3	2.57	1.37
[17]	–	–	–	–	96.2	96.2	92.7	7.74	4.47

CN(Cc1cnc2nc(N)nc(N)c2n1)c1ccc(C(=O)N[C@@H](CCC(=O)O)C(=O)O)cc1 [Methotrexate]
Conditions	IC50 (cell viability) [nM]
BV-173	32.3
HEL	3.7
HL-60 [1]	7.01
KCL-22	12.6
KG-1	> 10000
LAMA-84	4.72
ML-2	9.65
MOLM-13	7.57
SHI-1	80.8
THP-1	31.9

Conditions	area under dose-response curve, co-treatment: AZD3965 100 nM	area under dose-response curve, co-treatment: DMSO vehicle	area under dose-response curve, co-treatment: GSK2194069 100 nM	area under dose-response curve, co-treatment: pictilisib 100 nM	cell viability, 1 nM [%]	cell viability, 10 nM [%]	cell viability, 100 nM [%]	cell viability, 1000 nM [%]	cell viability, 10000 nM [%]
HL-60 [2]	0.618	0.523	0.515	0.544	–	–	–	–	–
[3]	–	–	–	–	88	87.6	70.2	73.6	95.8
[4]	–	–	–	–	98.7	50.1	57.6	< 0	46.4
[5]	–	–	–	–	51.4	92.2	25.9	6.38	0.492
[6]	–	–	–	–	89	94.6	87.8	22.5	35.6
[7]	–	–	–	–	94.1	89.1	56.6	15.2	34.5
[8]	–	–	–	–	95.4	89.3	> 100	80.5	91.1
[9]	–	–	–	–	68.8	42.2	80.2	23	15.2
[10]	–	–	–	–	96.4	88.3	82.7	58.2	88.5
[11]	–	–	–	–	99.7	95.8	97.1	67.7	92
[12]	–	–	–	–	46	95	40	10.9	5.65
[13]	–	–	–	–	99.6	> 100	87.7	72.5	92.6
[14]	–	–	–	–	76.5	89.1	96.3	70.3	86.1
[15]	–	–	–	–	98.8	96.8	98.1	75.3	63.1
[16]	–	–	–	–	96.2	98.4	97.3	81.7	95.5
[17]	–	–	–	–	> 100	98.1	97.4	87	97.3
